Drawing on PubChem BioAssay (NCI), this text covers TGI for seven compounds.

Among the test systems are HT29 colon; IGROV1 ovarian; MDA-N; SNB-75 CNS; MDA-MB-231 breast; PC-3 prostate; HOP-62 NSCLC; HS 578T breast; CAKI-1 renal; HL-60(TB) leukemia; OVCAR-4 ovarian; NCI-H460 lung; KM12 colon; OVCAR-3 ovarian; MDA-MB-435; U251 CNS; LOX IMVI melanoma; K-562 leukemia; SK-MEL-28 melanoma; RXF 393 renal.
Test in all cases: NCI-60 cell line screen, 48 h

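These data come from cells grown in 96-well plates and exposed to compound for 48 hours at five concentrations. TGI marks complete inhibition of growth.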

With `O=C(O)Cc1cccc2c(=O)c3cccc([N+](=O)[O-])c3[nH]c12`, the TGI in the test on HT29 colon, with IGROV1 ovarian, with MDA-N, with SNB-75 CNS, with MDA-MB-231 breast and with PC-3 prostate was more than 100 µM throughout. The TGI with HOP-62 NSCLC, in the test with HS 578T breast, in the test on CAKI-1 renal, in the test with HL-60(TB) leukemia, in the test on OVCAR-4 ovarian and in the test on NCI-H460 lung was more than 100 µM throughout. Also, the TGI in the test with KM12 colon, with OVCAR-3 ovarian, in the test on MDA-MB-435, with U251 CNS, in the test on LOX IMVI melanoma and in the test on K-562 leukemia was more than 100 µM each time.

Turning to `CCN1C[C@]2(C)CC[C@H](OC)C34C5C[C@@H]6[C@@H](OC)C[C@@](OC)(C5[C@H]6OCc5ccccc5)C(C13)[C@H](OC(C)=O)[C@@H]42` (stereo partly drawn), the TGI in the test with HT29 colon is more than 100 µM; in the test with IGROV1 ovarian, more than 100 µM; with MDA-N, more than 100 µM; in the test on SNB-75 CNS, 36 µM; with MDA-MB-231 breast, more than 100 µM; with PC-3 prostate, more than 100 µM. Further, the TGI in the test with HOP-62 NSCLC, in the test with HS 578T breast, in the test with SK-MEL-28 melanoma, in the test with RXF 393 renal, in the test with HL-60(TB) leukemia and in the test on OVCAR-4 ovarian was more than 100 µM each time. The TGI in the test with NCI-H460 lung, in the test with KM12 colon, in the test with OVCAR-3 ovarian, in the test on MDA-MB-435, with U251 CNS and in the test on LOX IMVI melanoma was more than 100 µM throughout. This compound registered a TGI in the test on K-562 leukemia of more than 100 µM.

For `BrCc1ccc(CBr)c2c1-c1c(CBr)ccc3ccc(CBr)c-2c13`, the TGI in the test with HT29 colon, in the test on IGROV1 ovarian, in the test with MDA-N, in the test with SNB-75 CNS, with MDA-MB-231 breast and in the test on PC-3 prostate was more than 100 µM in each case. The TGI with HOP-62 NSCLC, in the test on HS 578T breast, with SK-MEL-28 melanoma, in the test on HL-60(TB) leukemia, in the test with OVCAR-4 ovarian and with NCI-H460 lung was more than 100 µM each time. Also, the TGI in the test on KM12 colon, in the test on OVCAR-3 ovarian, in the test on MDA-MB-435, in the test on U251 CNS, in the test with LOX IMVI melanoma and in the test with K-562 leukemia was more than 100 µM throughout.

Consider `Nc1c(Cl)cc(-c2nc3ccccc3s2)cc1Cl`, for which the TGI with HT29 colon, in the test on IGROV1 ovarian, in the test with MDA-N, in the test with SNB-75 CNS, in the test on MDA-MB-231 breast and with PC-3 prostate was more than 100 µM each time. Besides, the TGI in the test with HOP-62 NSCLC, in the test on HS 578T breast, in the test with SK-MEL-28 melanoma, in the test with RXF 393 renal, in the test with HL-60(TB) leukemia and with NCI-H460 lung was more than 100 µM in each case. Also, the TGI in the test on KM12 colon, in the test on OVCAR-3 ovarian, in the test with MDA-MB-435, in the test on U251 CNS and with K-562 leukemia was more than 100 µM in each case.

On to `CN1CCC/C1=C1/C(=O)N(c2ccccc2)N=C1c1ccc[nH]1`, for which the TGI in the test on IGROV1 ovarian, in the test with MDA-N, in the test with SNB-75 CNS, in the test with MDA-MB-231 breast, in the test on PC-3 prostate and in the test with HOP-62 NSCLC was more than 100 µM throughout. Also, the TGI in the test with HS 578T breast, in the test on SK-MEL-28 melanoma, with RXF 393 renal, in the test on CAKI-1 renal, in the test on HL-60(TB) leukemia and in the test on OVCAR-4 ovarian was more than 100 µM each time. Further, the TGI in the test on NCI-H460 lung, in the test on KM12 colon, with OVCAR-3 ovarian, in the test on MDA-MB-435, with U251 CNS and in the test with LOX IMVI melanoma was more than 100 µM throughout. Also, in the test on K-562 leukemia, the TGI was more than 100 µM.

On to `CC(=O)O[C@@H]1[C@H]2[C@@H](OC(=O)c3ccccc3)[C@@H](C)C[C@]2(O)[C@H](OC(C)=O)[C@@]2(C)[C@@H]3C[C@@](C)(OC(C)=O)C[C@@H](OC(C)=O)[C@@]3(OC(C)=O)C[C@@]12C`, for which the TGI in the test with IGROV1 ovarian, in the test on MDA-N, in the test on SNB-75 CNS, in the test with MDA-MB-231 breast, in the test with PC-3 prostate and in the test with HOP-62 NSCLC was more than 10 µM in each case. Besides, the TGI in the test with HS 578T breast, in the test with RXF 393 renal, in the test on CAKI-1 renal, with HL-60(TB) leukemia, in the test on OVCAR-4 ovarian and with NCI-H460 lung was more than 10 µM throughout. Moreover, the TGI in the test with KM12 colon, with OVCAR-3 ovarian, with MDA-MB-435, in the test on U251 CNS, in the test with LOX IMVI melanoma and in the test on K-562 leukemia was more than 10 µM each time.

As for `CCOP(=O)(OCC)C(Cc1ccc(Cl)cc1)NS(=O)(=O)c1ccc(C)cc1` (stereo not drawn), the TGI in the test with HT29 colon, in the test with IGROV1 ovarian, with MDA-N, with MDA-MB-231 breast, with PC-3 prostate and with HOP-62 NSCLC was more than 100 µM in each case. Also, the TGI in the test on HS 578T breast, in the test on SK-MEL-28 melanoma, with RXF 393 renal, in the test with CAKI-1 renal, in the test with HL-60(TB) leukemia and in the test with OVCAR-4 ovarian was more than 100 µM each time. The TGI in the test on NCI-H460 lung, in the test with KM12 colon, in the test with OVCAR-3 ovarian, in the test with MDA-MB-435, in the test with U251 CNS and in the test on LOX IMVI melanoma was more than 100 µM throughout. Besides, in the test with K-562 leukemia, the TGI was more than 100 µM.
